Experimental data published in patent US8252788B2, “Therapeutic compounds” (Allergan, Inc., priority 2008, dated 2012).

Columns and labels:
[1] = test system: laser-induced hypertensive monkeys; assay: In vivo intraocular pressure (IOP) test in laser-induced hypertensive monkeys
normotensive dogs = assay: In vivo intraocular pressure (IOP) test in normotensive dogs
Description: Title compounds H145 and H146 from above are tested in vivo to test its ability to reduce intraocular pressure. Compound H145 is tested in normotensive dogs.

[2] = test system: lashes and adjacent hairs; assay: Observation of lashes and adjacent hairs in glaucoma patients treated with bimatoprost in one eye; assay type: in vivo
Text: In the course of treating patients having glaucoma, treatment may only be appropriate in one eye. […] The lash appearance on the lids of the treated eyes would have appeared quite attractive if it represented a bilateral phenomenon. As a result of its asymmetric nature, the long lashes on one side could be construed as disturbing from a cosmetic standpoint. A systemic examination was preformed as a result of the asymmetric phenomenon. It soon became apparent that this altered appearance was not an isolated finding. […] Definite differences could be identified to varying degrees in the lashes and adjacent hairs of all patients who were taking the drug on a unilateral basis for longer than 6 months.
The changes in the lashes were apparent on gross inspection in several patients once attention was focused on the issue. In those with light colored hair and lashes, the differences were only seen easily with the aid of the high magnification and lighting capabilities of the slit lamp biomicroscope. In the course of glaucoma follow-up examination, attention is generally immediately focused on the eye itself. As a result of the high power magnification needed only one eye is seen at a time and the eye is seen at a high enough power that the lashes are not in focus. […]

| SMILES | IOP versus baseline [1] | intraocular pressure (IOP) versus baseline (normotensive dogs) | lash appearance in treated eye versus non-treated eye ([2]; glaucoma patient treated in one eye) | hair growth in treated versus control areas ([2]; multiple parameters of hair appearance, many subjects) |
| --- | --- | --- | --- | --- |
| O=C(OCCN1CCOCC1)c1ccc(CCC[C@@H]2[C@@H](CSc3cc(Cl)cc(Cl)c3)[C@H](O)C[C@H]2Cl)s1 [Compound H146] | decreases from baseline | decreases from baseline | – | – |
| O=C(OCCO)c1ccc(CCC[C@@H]2[C@@H](CNc3cc(Cl)cc(Cl)c3)[C@H](O)C[C@H]2Cl)s1 [Compound H147] | decreases from baseline | decreases from baseline | – | – |
| O=C(OCCN1CCOCC1)c1ccc(CCC[C@@H]2[C@@H](CNc3cc(Cl)cc(Cl)c3)[C@H](O)C[C@H]2Cl)s1 [Compound H148] | decreases from baseline | decreases from baseline | – | – |
| O=C(OCCO)c1ccc(CCC[C@@H]2[C@@H](CSc3cc(Cl)cc(Cl)c3)[C@H](O)C[C@H]2Cl)s1 [Compound H145] | decreases from baseline | decreases from baseline | – | – |
| CCNC(=O)CCC/C=C\C[C@@H]1[C@@H](/C=C/[C@@H](O)CCc2ccccc2)[C@H](O)C[C@@H]1O [bimatoprost] | – | – | longer, thicker, and fuller | stimulated |
